EP3383875B1, “3-PYRIMIDINYL PYRROLO [2,3-B] PYRIDINE AS ANTICANCER AGENTS AND THE PROCESS FOR THE PREPARATION THEREOF” (Council Of Scientific & Industrial Research, priority 2015, dated 2017)
Like-named read-outs stand apart in the source and are kept apart here.

What was measured:
[1] = test system: MCF-7; assay: MTT assay on cancer cell line MCF-7; format: cell-based, Human; conditions: Homo sapiens
Protocol: (§1) Cell culture, growth conditions and treatments. […] Different molecules were dissolved in DMSO and were delivered to cell cultures in complete medium.

[2] = target: CDK-2/cyclin A (Homo sapiens, UniProt P24941); assay: CDK inhibition assay, CDK-2/cyclin A against Histone HI, 33P-ATP; format: biochemical; conditions: at 500 nM
Procedure, shortened: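 CDK-2/cyclin A (5-20 mU) phosphorylating Histone HI (1 mg/ml) in 50 mM Hepes pH 7.5, 100 mM NaCl, 10 mM Mg acetate, 0.02 mM [33P-γ-ATP], 30 min at room temperature. Stopped with orthophosphoric acid, captured on P81 filters for radiometric readout.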

[3] = test system: MDA-MB435; assay: MTT assay on cancer cell line MDA-MB435; format: cell-based, Human; conditions: Homo sapiens, MDA-MB-435
Protocol: as §1

[4] = test system: PC-3; assay: MTT assay on cancer cell line PC-3; format: cell-based, human; conditions: Homo sapiens
Protocol: as §1

[5] = target: CDK-9/Cyclin T1 (Homo sapiens, UniProt P50750); assay: CDK inhibition assay, CDK-9/Cyclin T1 against substrate peptide, 33P-ATP; format: biochemical; conditions: at 500 nM
Protocol: (50-1000 cpm/pmole) and incubated for 30 min at room temperature. Assays were stopped by addition of 5 µl of 0.5 M (3%) orthophosphoric acid and then harvested onto P81 Unifilter plates with a wash buffer of 50 mM orthophosphoric acid.

[6] = test system: HCT-116; assay: MTT assay on cancer cell line HCT-116; format: cell-based, human; conditions: Homo sapiens
Protocol: as §1

[7] = test system: SHSY-5Y; assay: MTT assay on cancer cell line SHSY-5Y; format: cell-based, human; conditions: Homo sapiens, SH-SY5Y
Protocol: as §1

[8] = MCF7, MCF-7, Table 8, read-out: In vitro cell inhibition, % of inhibition, MCF-7
[9] = MCF7, read-out: inhibition against MCF-7 cell lines
[10] = Table-6, read-out: In vitro CDK2 % of inhibition
[11] = MDA-MB435, at 10µM, Table 8, read-out: In vitro cell inhibition, % of inhibition, MDA-MB435
[12] = Table 8, read-out: In vitro cell inhibition, % of inhibition, PC-3
[13] = Table-6, read-out: In vitro CDK9 % of inhibition
[14] = at 10µM, Table 8, read-out: In vitro cell inhibition, % of inhibition, HCT-116
[15] = SHSY-5Y, Table 8, read-out: In vitro cell inhibition, % of inhibition, SHSY-5Y
[16] = read-out: inhibition against SHSY-5Y cell lines
[17] = Table-7, read-out: In vitro CDK2 % of inhibition
[18] = read-out: inhibition against CDK2
[19] = Table-7, read-out: In vitro CDK9 % of inhibition
[20] = read-out: inhibition against CDK9
[21] = at 10 µM, read-out: inhibition against MDAMB-435 cell lines
[22] = read-out: inhibition against PC-3 cell lines
[23] = at 10 µM, read-out: inhibition against HCT-116 cell lines

Chain of CDK-9/Cyclin T1 (P50750 whole entry): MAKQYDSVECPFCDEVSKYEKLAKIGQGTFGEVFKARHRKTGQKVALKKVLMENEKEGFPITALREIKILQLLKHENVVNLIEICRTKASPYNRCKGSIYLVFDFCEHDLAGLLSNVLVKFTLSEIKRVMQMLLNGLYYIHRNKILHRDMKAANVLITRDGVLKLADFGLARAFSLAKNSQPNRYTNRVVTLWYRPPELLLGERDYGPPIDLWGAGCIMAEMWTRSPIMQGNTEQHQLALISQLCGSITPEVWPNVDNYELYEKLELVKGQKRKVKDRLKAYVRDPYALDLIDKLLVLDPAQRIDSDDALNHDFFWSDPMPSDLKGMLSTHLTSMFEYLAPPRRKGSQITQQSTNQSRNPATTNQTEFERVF
Chain of CDK-9/Cyclin T1 (O60563 whole entry partner): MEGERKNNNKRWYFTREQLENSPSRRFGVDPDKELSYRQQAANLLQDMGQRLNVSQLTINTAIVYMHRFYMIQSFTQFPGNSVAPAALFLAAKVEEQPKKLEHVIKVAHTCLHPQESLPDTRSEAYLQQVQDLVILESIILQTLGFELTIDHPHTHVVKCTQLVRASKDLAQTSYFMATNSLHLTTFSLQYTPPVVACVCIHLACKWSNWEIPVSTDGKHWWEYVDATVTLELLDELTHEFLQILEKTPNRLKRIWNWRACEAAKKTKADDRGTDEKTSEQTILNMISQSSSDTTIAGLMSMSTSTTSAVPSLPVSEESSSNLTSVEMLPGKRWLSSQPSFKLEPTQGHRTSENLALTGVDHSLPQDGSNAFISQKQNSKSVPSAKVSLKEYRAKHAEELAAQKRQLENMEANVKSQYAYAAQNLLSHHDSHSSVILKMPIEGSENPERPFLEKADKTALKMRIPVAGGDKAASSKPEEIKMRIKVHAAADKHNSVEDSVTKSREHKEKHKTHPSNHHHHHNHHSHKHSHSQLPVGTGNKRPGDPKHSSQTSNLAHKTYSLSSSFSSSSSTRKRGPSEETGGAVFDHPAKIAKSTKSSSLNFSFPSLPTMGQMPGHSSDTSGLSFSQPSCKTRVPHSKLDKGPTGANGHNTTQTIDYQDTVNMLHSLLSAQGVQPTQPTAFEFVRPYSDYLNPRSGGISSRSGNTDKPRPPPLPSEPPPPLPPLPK

Structure (SMILES)	inhibition at 10 µM [1, 8] [%]	inhibition at 10 µM [1, 9] [%]	inhibition at 0.5 µM [2, 10] [%]	inhibition at 10 µM [3, 11] [%]	inhibition at 10 µM [4, 12] [%]	inhibition at 0.5 µM [5, 13] [%]	inhibition at 10 µM [6, 14] [%]	inhibition at 10 µM [7, 15] [%]	inhibition at 10 µM [7, 16] [%]	inhibition at 0.5 µM [2, 18] [%]	inhibition at 0.5 µM [5, 20] [%]	inhibition at 10 µM [3, 21] [%]	inhibition at 10 µM [4, 22] [%]	inhibition at 10 µM [6, 23] [%]	further results
FC(F)(F)Oc1ccc(-c2cnc3[nH]cc(-c4ccnc(NC5CCCC5)n4)c3c2)cc1 [1A23, N-cyclopentyl-4-(5-(4-(trifluoromethoxy)phenyl)-1H-pyrrolo[2,3-b]pyridin-3-yl)pyrimidin-2-amine]	> 50	> 50	> 70	< 50	> 50	> 50	> 50	> 70	> 70						
CCc1ccccc1-c1cnc2[nH]cc(-c3ccnc(N)n3)c2c1 [1C10, 4-(5-(2-ethylphenyl)-1H-pyrrolo[2,3-b]pyridin-3-yl)pyrimidin-2-amine]		> 70							> 70	> 70	> 70				inhibition at 10 µM ([1]; MCF7, MCF-7, Table 9 (for reference), read-out: In vitro cell inhibition, % of inhibition, MCF-7): > 70%; inhibition at 0.5 µM [2, 17]: > 70%; inhibition at 10 µM ([3]; MDA-MB435, at 10µM, Table 9 (for reference), read-out: In vitro cell inhibition, % of inhibition, MDA-MB435): > 70%; inhibition at 10 µM ([4]; Table 9 (for reference), read-out: In vitro cell inhibition, % of inhibition, PC-3): > 70%; inhibition at 0.5 µM [5, 19]: > 70%; inhibition at 10 µM ([6]; at 10µM, Table 9 (for reference), read-out: In vitro cell inhibition, % of inhibition, HCT-116): > 70%; inhibition at 10 µM ([7]; SHSY-5Y, Table 9 (for reference), read-out: In vitro cell inhibition, % of inhibition, SHSY-5Y): > 70%
COc1ccc(-c2cnc3[nH]cc(-c4ccnc(NC5CC5)n4)c3c2)cc1 [1A11, N-cyclopropyl-4-(5-(4-methoxyphenyl)-1H-pyrrolo[2,3-b]pyridin-3-yl)pyrimidin-2-amine]	> 70	> 70	> 70	> 70	> 50	> 70	> 70	> 70	> 70	> 70	> 70	> 70	> 50	> 70	
Fc1cccc(-c2cnc3[nH]cc(-c4ccnc(NCCc5ccccc5)n4)c3c2)c1 [1B5, 4-(5-(3-fluorophenyl)-1H-pyrrolo[2,3-b]pyridin-3-yl)-N-phenethylpyrimidin-2-amine]	> 50	> 50		> 50	> 50		> 50	> 70	> 70				> 50		inhibition at 0.5 µM [2, 17]: > 50%; inhibition at 0.5 µM [5, 19]: > 50%
Fc1ccc(-c2cnc3[nH]cc(-c4ccnc(NC5CC5)n4)c3c2)cc1 [1A2, N-cyclopropyl-4-(5-(4-fluorophenyl)-1H-pyrrolo[2,3-b]pyridin-3-yl)pyrimidin-2-amine]	> 70	> 70	> 70	> 70	> 50	> 70	> 70	> 70	> 70	> 70	> 70	> 70	> 50	> 70	
c1cc(-c2c[nH]c3ncc(-c4ccoc4)cc23)nc(NC2CC2)n1 [1A16, N-cyclopropyl-4-(5-(furan-3-yl)-1H-pyrrolo[2,3-b]pyridin-3-yl)pyrimidin-2-amine]	> 50	> 50	> 70	> 70	> 70	> 70	> 70	> 50		> 70	> 70				
Fc1cccc(-c2cnc3[nH]cc(-c4ccnc(NC5CC5)n4)c3c2)c1 [1A5, N-cyclopropyl-4-(5-(3-fluorophenyl)-1H-pyrrolo[2,3-b]pyridin-3-yl)pyrimidin-2-amine]	> 70	> 70	> 70	> 70	> 70	> 70	> 70	> 70	> 70	> 70	> 70	> 70		> 70	
